Test results taken from US8916131B2, “Radiopharmaceutical composition” (GE Healthcare Limited, priority 2007, dated 2014).

Tests used:
[1] = Compound 1 adsorption (loss) to various silicone tubings with polysorbate 80; type: physicochemical
Description: Solutions were prepared containing 7% v/v ethanol in 10 mM sodium phosphate buffer at pH 7.4, 75 μg of Compound 1 and selected v/v % amounts of polysorbate 80. Various silicone tubing types were tested as follows: [table] The percentage loss of Compound 1 onto the tubing was calculated in each experiment. Fluorine was assayed before and after the passage through tubing, and the results were as follows: […]

[2] = Loss of Compound 1 to dispensing kit components (syringe, silicone tube, hard tube, filter), evaluated by HPLC; type: physicochemical; settings: 7% v/v ethanol
Description: Solutions were prepared containing 7% v/v ethanol in 0.01 M sodium phosphate buffer at pH 7.4, 75 μg of Compound 1 and either (i) 12% v/v propylene glycol (PG) or (ii) 10% v/v polyethylene glycol 400 (PEG 400). Percentage loss of Compound 1 to various components of a dispensing kit was evaluated by High Performance Liquid Chromatography (HPLC) in the following experiments: […]

% Loss Compound 1 ([1]; Experiment 1: 0.8 × 4.0 Pt-cured silicone tubing, polysorbate 80 0 v/v %, 2 min 0 sec, 350 μl): 63% | % Loss Compound 1 ([1]; Experiment 2: 1.6 × 4.8 Pt-cured silicone tubing, polysorbate 80 0 v/v %, 2 min 7 sec, 1400 μl): 41% | % Loss Compound 1 ([1]; Experiment 3: 1.6 × 4.8 Perox-cured silicone tubing, polysorbate 80 0 v/v %, 2 min 6 sec, 1400 μl): 45% | % Loss Compound 1 ([1]; Experiment 4: 0.8 × 4.0 Pt-cured silicone tubing, polysorbate 80 1 v/v %, 2 min 3 sec, 350 μl): 0% | % Loss Compound 1 ([1]; Experiment 5: 1.6 × 4.8 Pt-cured silicone tubing, polysorbate 80 1 v/v %, 2 min 10 sec, 1400 μl): 1% | % Loss Compound 1 ([1]; Experiment 6: 1.6 × 4.8 Perox-cured silicone tubing, polysorbate 80 1 v/v %, 2 min 4 sec, 1400 μl): 0% | % Loss Compound 1 ([1]; Experiment 7: 0.8 × 4.0 Pt-cured silicone tubing, polysorbate 80 5 v/v %, 2 min 2 sec, 350 μl): 0% | % Loss Compound 1 ([1]; Experiment 8: 1.6 × 4.8 Pt-cured silicone tubing, polysorbate 80 5 v/v %, 2 min 4 sec, 1400 μl): 1% | % Loss Compound 1 ([1]; Experiment 9: 1.6 × 4.8 Perox-cured silicone tubing, polysorbate 80 5 v/v %, 2 min 1 sec, 1400 μl): 1% | % loss ([2]; 10% v/v PEG 400, filter, 11 sec, 9.5 ml, 0.01 M phosphate pH 7.4): 51% | % loss ([2]; 10% v/v PEG 400, hard tube, 5 min 4 sec, ~2-2.5 ml, 0.01 M phosphate pH 7.4): 4% | % loss ([2]; 10% v/v PEG 400, silicone tube, 2 min 2 sec, ~1-1.5 ml, 0.01 M phosphate pH 7.4): 8% | % loss ([2]; 10% v/v PEG 400, syringe, 1 min 1 sec, 9.5 ml, 0.01 M phosphate pH 7.4): 1% | % loss ([2]; 12% v/v PG, filter, 10 sec, 9.5 ml, 0.01 M phosphate pH 7.4): 87% | % loss ([2]; 12% v/v PG, hard tube, 5 min 2 sec, ~2-2.5 ml, 0.01 M phosphate pH 7.4): 3% | % loss ([2]; 12% v/v PG, silicone tube, 2 min 23 sec, ~1-1.5 ml, 0.01 M phosphate pH 7.4): 30% | % loss ([2]; 12% v/v PG, syringe, 1 min 4 sec, 9.5 ml, 0.01 M phosphate pH 7.4, 75 μg Compound 1): 0%
SMILES: CNc1ccc(-c2nc3ccc(O)cc3s2)cc1[18F] [Compound 1, 2-[3-[^18F]fluoro-4-(methylamino)phenyl]-6-hydroxy-benzothiazole]
